Data published in patent publication US12630507B2, “Pyrrolidine amide derivative salt and use thereof” (SUNSHINE LAKE PHARMA CO., LTD., priority 2020, dated 2026).

Tests used:
[1] = Pharmacokinetics test, oral capsules, plasma concentration by LC-MS/MS; assay type: in vivo; details: male Beagle dogs, oral capsule, 5 mg/kg
Experimental: The test samples (that is, the salt of the present invention or its crystal form, or the compound represented by formula (I) of the present invention) were filled into capsules for oral administration.
Three […] male Beagle dogs were taken orally administered capsules containing the test sample at a dose of 5 mg/kg, and blood was collected at time points of 0.25, 0.5, 1.0, 2.0, 5.0, 7.0 and 24 h. Standard curve was plotted based on concentrations of the samples in a suitable range, the concentration of the test sample in the plasma sample was measured and quantified by AB SCIEX API5500 LC-MS/MS at MRM mode. Pharmacokinetic parameters were calculated according to drug concentration-time curve using a noncompartmental method by WinNonLin 6.3 software.

MAO-B = biological target: T1, MAO-B (Homo sapiens, UniProt P27338); details: as disclosed in WO 2019170115 A1; cited from earlier work
T1 sequence (P27338 1-520): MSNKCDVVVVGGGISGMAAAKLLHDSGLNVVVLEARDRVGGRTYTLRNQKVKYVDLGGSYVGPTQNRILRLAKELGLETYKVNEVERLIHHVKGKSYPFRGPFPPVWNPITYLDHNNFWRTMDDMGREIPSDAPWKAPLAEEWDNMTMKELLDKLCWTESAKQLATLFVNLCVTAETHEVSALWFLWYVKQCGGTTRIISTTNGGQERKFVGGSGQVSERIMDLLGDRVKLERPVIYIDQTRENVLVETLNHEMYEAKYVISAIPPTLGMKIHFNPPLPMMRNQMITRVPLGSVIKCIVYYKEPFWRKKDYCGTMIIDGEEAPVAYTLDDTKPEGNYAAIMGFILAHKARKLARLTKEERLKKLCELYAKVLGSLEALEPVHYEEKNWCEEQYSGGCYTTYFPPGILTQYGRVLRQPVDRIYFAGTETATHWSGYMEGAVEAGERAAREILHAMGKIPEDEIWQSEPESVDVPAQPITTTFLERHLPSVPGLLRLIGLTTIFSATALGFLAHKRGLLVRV

[2] = Solubility test in water by HPLC; assay type: physicochemical; details: for Concentration of compound represented by formula (I) in saturated aqueous solution: ultrapure water, 37 °C, shaking for 24 h, filtrate by HPLC
Experimental: The solubility of the present invention was determined using an Agilent 1200 High Performance Liquid Chromatograph DAD/VWD detector with an Agilent XDB-C18 model (4.6×50 mm, 5 μm). Detection wavelength was 266 nm, flow rate was 1.0 mL/min, the column temperature was 35° C., mobile phase A: acetonitrile/0.01 M ammonium acetate=[…] (V/V), analysis methods: acetonitrile/mobile phase A=70/30 (V/V), running time was 10 minutes.
The test samples were placed in organic ultrapure water at 37 O(C to prepare a supersaturated solution. After shaking for 24 h, the mixture was filtered with an aqueous filter membrane to obtain the filtrate, and the solubility of the target sample in water was detected by HPLC. Results are as shown in Table 5.

[3] = Hygroscopicity test (weight gain, 25° C., saturated ammonium chloride desiccator, 24 hours); assay type: physicochemical
Experimental: • 1) A dry stoppered glass weighing bottle (50 mm in outer diameter, 15 mm in height) was placed in a constant temperature desiccator (the lower part was placed in a saturated ammonium chloride solution) at 25° C.±1° C. the day before, and accurately weighed (m1). • 2) An appropriate amount of the test sample was taken and spread in the above weighing bottle. The thickness of the test sample was generally about 1 mm, and it was precisely weighed (m2). • 3) The weighing bottle was opened and placed together with the bottle cap under the above constant temperature and humidity conditions for 24 hours. • 4) The weighing bottle was closed with the bottle cap, and accurately weighed (m3).

[4] = Stability test (high temperature, high humidity, light); assay type: physicochemical; details: for Outward (appearance): cell wraps r9-r11: Off-white solid
Experimental: • (1) High temperature test: a batch of the test samples were taken into the flat weighing bottles, spread into a thin layer with a thickness of ≤5 mm. The above weighing bottles were stored at 40° C.±2° C./75%±5% RH and 60° C.±2° C./75% f 5% RH for 30 days in an incubator. On the 5th, 10th, and 30th days, samples were taken for detection according to the key stability inspection items: the color change of the sample was observed, the purity of the sample was determined by HPLC. • (2) High humidity test: a batch of the test samples were taken into the flat weighing bottles, spread into a thin layer with a thickness of ≤5 mm, and stored for 30 days at 25° C., RH 75%±5% or RH 90%±5%. On the 5th, 10th, and 30th days, samples were taken for detection according to the key stability inspection items: the color change of the sample was observed, the purity of the sample was determined by HPLC. • (3) Light test: a batch of the test samples were taken into the flat weighing bottles, spread into a thin layer of ≤5 mm thick, and placed in a light box (with an ultraviolet lamp) with an open mouth. The test samples were stored under the condition of illuminance of 4500±500 lx and ultraviolet light ≥0.7 w·h/m^2 for 30 days. On the 5th, 10th, and 30th days, samples were taken for detection according to the key stability inspection items: the color change of the sample was observed, the purity of the sample was determined by HPLC.

[5] = 25° C.±1° C., saturated ammonium chloride solution, 24 hours
[6] = High humidity (25° C., RH 75% ± 5%), 5 days
[7] = High humidity (25° C., RH 75% ± 5%), 10 days
[8] = High humidity (25° C., RH 75% ± 5%), 30 days
[9] = High humidity (25° C., RH 90% ± 5%), 5 days
[10] = High humidity (25° C., RH 90% ± 5%), 10 days
[11] = High humidity (25° C., RH 90% ± 5%), 30 days
[12] = High temperature (40° C., RH 75% ± 5%), 5 days
[13] = High temperature (40° C., RH 75% ± 5%), 10 days
[14] = High temperature (40° C., RH 75% ± 5%), 30 days
[15] = High temperature (60° C., RH 75% ± 5%), 5 days
[16] = High temperature (60° C., RH 75% ± 5%), 10 days
[17] = High temperature (60° C., RH 75% ± 5%), 30 days
[18] = Light (4500±500 lx, ultraviolet), 5 days
[19] = Light (4500±500 lx, ultraviolet), 10 days
[20] = Light (4500±500 lx, ultraviolet), 30 days

NC(=O)[C@@H]1C[C@H](F)CN1Cc1ccc(OCc2cccc(F)c2)cc1 [Compound represented by formula (I), (2S,4S)-4-fluoro-1-(4-(3-fluorobenzyloxy)benzyl)pyrrolidine-2-carboxamide]
AUClast [1]: 548 ng·h/mL
Cmax [1]: 0.256 µg/mL
Tmax [1]: 0.8 h
Inhibitory effect on the activity of MAO-B (MAO-B): good inhibitory effect
Water solubility (in words) [2]: poor water solubility
Concentration of compound represented by formula (I) in saturated aqueous solution [2]: 11.40 µg/mL

NC(=O)[C@@H]1C[C@H](F)CN1Cc1ccc(OCc2cccc(F)c2)cc1 [Example 2, (2S,4S)-4-fluoro-1-(4-(3-fluorobenzyloxy)benzyl)pyrrolidine-2-carboxamide]
AUClast [1]: 939 ng·h/mL
Cmax [1]: 0.415 µg/mL
Tmax [1]: 1 h
Hygroscopicity [3]: no or almost no hygroscopicity
Conclusion (hygroscopicity feature) [3, 5]: No or almost none
Hygroscopicity gain [3, 5]: 0.12%
Concentration of compound represented by formula (I) in saturated aqueous solution [2]: 21161.79 µg/mL
Purity ([4]; 0 day): 99.74%
Outward (appearance) ([4]; 0 day): Off-
Purity [4, 6]: 99.80%
Outward (appearance) [4, 6]: Off-
Purity [4, 7]: 99.69%
Outward (appearance) [4, 7]: Off-
Purity [4, 8]: 99.72%
Outward (appearance) [4, 8]: Off-
Purity [4, 9]: 99.80%
Outward (appearance) [4, 9]: Off-
Purity [4, 10]: 99.69%
Outward (appearance) [4, 10]: Off-
Purity [4, 11]: 99.73%
Outward (appearance) [4, 11]: Off-
Purity [4, 12]: 99.74%
Outward (appearance) [4, 12]: Off-
Purity [4, 13]: 99.70%
Outward (appearance) [4, 13]: Off-
Purity [4, 14]: 99.68%
Outward (appearance) [4, 14]: Off-
Purity [4, 15]: 99.72%
Outward (appearance) [4, 15]: Off-
Purity [4, 16]: 99.64%
Outward (appearance) [4, 16]: Off-
Purity [4, 17]: 99.68%
Outward (appearance) [4, 17]: Off-
Purity [4, 18]: 99.70%
Outward (appearance) [4, 18]: Off-
Purity [4, 19]: 99.64%
Outward (appearance) [4, 19]: Off-
Purity [4, 20]: 99.64%
Outward (appearance) [4, 20]: Off-
Change of appearance and purity ([4]; conditions of high temperature, high humidity and light, up to 30 days): no obvious change

NC(=O)[C@@H]1C[C@H](F)CN1Cc1ccc(OCc2cccc(F)c2)cc1 [Example 8, (2S,4S)-4-fluoro-1-(4-(3-fluorobenzyloxy)benzyl)pyrrolidine-2-carboxamide]
AUClast [1]: 378 ng·h/mL
Cmax [1]: 0.143 µg/mL
Tmax [1]: 0.7 h
Concentration of compound represented by formula (I) in saturated aqueous solution [2]: 4719.01 µg/mL

NC(=O)[C@@H]1C[C@H](F)CN1Cc1ccc(OCc2cccc(F)c2)cc1 [Example 9, (2S,4S)-4-fluoro-1-(4-(3-fluorobenzyloxy)benzyl)pyrrolidine-2-carboxamide]
AUClast [1]: 450 ng·h/mL
Cmax [1]: 0.151 µg/mL
Tmax [1]: 3.4 h
Concentration of compound represented by formula (I) in saturated aqueous solution [2]: 575.35 µg/mL

NC(=O)[C@@H]1C[C@H](F)CN1Cc1ccc(OCc2cccc(F)c2)cc1 [Example 10, (2S,4S)-4-fluoro-1-(4-(3-fluorobenzyloxy)benzyl)pyrrolidine-2-carboxamide]
AUClast [1]: 470 ng·h/mL
Cmax [1]: 0.162 µg/mL
Tmax [1]: 2.2 h
Concentration of compound represented by formula (I) in saturated aqueous solution [2]: 1571.18 µg/mL
